pKi: −log10 of the molar value. Converted amounts (≈) assume the structure as drawn. Read-outs that look alike come from different tables or passages of the source.
Experiments:
B. subtilis [1] = assay: Antibacterial activity of crude compounds made by small scale synthesis; assay type: cell-based; conditions: crude reaction mixtures dissolved in DMSO, assayed directly
Description: 6-Anilinouracils were synthesized using small scale synthetic methods. One milligram quantities of 3-(3-methoxypropyl)-6-chlorouracil were heated with 42 substituted anilines in micro-test tubes at 130° C. for 20 minutes. The reaction mixtures were dissolved in DMSO and assayed directly for antibacterial activity.

S. aureus = assay: MIC against S. aureus (methicillin-sensitive); assay type: cell-based; conditions: for MIC: Staphylococcus aureus, read-out: MIC S. aureas; for MIC S. aureus: Table 2
Description: (§1) To further investigate the antibacterial and/or DNA pol III inhibitory activity of various drug compounds, various ester-containing moieties N-linked to the EMAU core were produced as described in Example 1. These prodrugs were assayed for inhibition of B. subtilis DNA pol III and antibiotic activity against a number of bacteria.
(§2) The minimal inhibitory concentrations (MICs) of the four N3-substituted agents and EMAU were determined for B. subtilis (BS), methicillin-sensitive and resistant S. aureus (SA & MRSA), vancomycin-sensitive and resistant E. fecalis (EF& VREF), vancomycin-resistant E. fecium (VREF*), and E. coli (EC) as a Gram-negative control.

E. fecalis = assay: MIC against E. fecalis; assay type: cell-based; conditions: for MIC: Table 6, read-out: MIC E. fecalis; for MIC E. fecalis: Table 2
Description: as §1, §2

B. subtilis [2] = assay: MIC against B. subtilis; assay type: cell-based; conditions: for MIC: Bacillus subtilis, Table 6, read-out: MIC B. subtilis; for MIC B. subtilis: Table 2
Description: as §1, §2

B. subtilis DNA pol III = B. subtilis DNA pol III (Bacillus subtilis, UniProt P13267); assay: Inhibition of B. subtilis DNA pol III (Ki); assay type: biochemical
Description: as §1
The competitive inhibitor constants (Ki) of selected EMAU compounds were determined with three different pol Ills: the pol III enzyme from Bacillus subtilis (BS pol III), and the pol III enzymes of the clinically relevant pathogens, Enterococcus fecalis (EF pol III) and Staphylococcus aureus (SA pol 111).

E. coli = assay: MIC against E. coli (Gram-negative control); assay type: cell-based; conditions: Table 2
Description: as §1, §2

[3] = test system: vancomycin-resistant E. fecium; assay: MIC against vancomycin-resistant E. fecium (VRE, VREF*); assay type: cell-based; conditions: Table 2, vancomycin-resistant E. fecium
Description: as §1, §2

MRSA = assay: MIC against methicillin-resistant S. aureus strain MRSA / MRSA1; assay type: cell-based; conditions: Table 2
Description: as §1, §2

E. fecium = assay: MIC against E. fecium; assay type: cell-based; conditions: Table 2
Description: as §1

MRSA2 = assay: MIC against methicillin-resistant S. aureus strain MRSA2; assay type: cell-based; conditions: Table 2
Description: as §1, §2

[4] = Table 6, read-out: Ki, inhibition constant vs. B. subtilis DNA pol III
[5] = Table 2, prodrugs having the EMAU core, read-out: Ki B. subtilis DNA Pol III

B. subtilis DNA pol III, sequence (P13267 whole entry): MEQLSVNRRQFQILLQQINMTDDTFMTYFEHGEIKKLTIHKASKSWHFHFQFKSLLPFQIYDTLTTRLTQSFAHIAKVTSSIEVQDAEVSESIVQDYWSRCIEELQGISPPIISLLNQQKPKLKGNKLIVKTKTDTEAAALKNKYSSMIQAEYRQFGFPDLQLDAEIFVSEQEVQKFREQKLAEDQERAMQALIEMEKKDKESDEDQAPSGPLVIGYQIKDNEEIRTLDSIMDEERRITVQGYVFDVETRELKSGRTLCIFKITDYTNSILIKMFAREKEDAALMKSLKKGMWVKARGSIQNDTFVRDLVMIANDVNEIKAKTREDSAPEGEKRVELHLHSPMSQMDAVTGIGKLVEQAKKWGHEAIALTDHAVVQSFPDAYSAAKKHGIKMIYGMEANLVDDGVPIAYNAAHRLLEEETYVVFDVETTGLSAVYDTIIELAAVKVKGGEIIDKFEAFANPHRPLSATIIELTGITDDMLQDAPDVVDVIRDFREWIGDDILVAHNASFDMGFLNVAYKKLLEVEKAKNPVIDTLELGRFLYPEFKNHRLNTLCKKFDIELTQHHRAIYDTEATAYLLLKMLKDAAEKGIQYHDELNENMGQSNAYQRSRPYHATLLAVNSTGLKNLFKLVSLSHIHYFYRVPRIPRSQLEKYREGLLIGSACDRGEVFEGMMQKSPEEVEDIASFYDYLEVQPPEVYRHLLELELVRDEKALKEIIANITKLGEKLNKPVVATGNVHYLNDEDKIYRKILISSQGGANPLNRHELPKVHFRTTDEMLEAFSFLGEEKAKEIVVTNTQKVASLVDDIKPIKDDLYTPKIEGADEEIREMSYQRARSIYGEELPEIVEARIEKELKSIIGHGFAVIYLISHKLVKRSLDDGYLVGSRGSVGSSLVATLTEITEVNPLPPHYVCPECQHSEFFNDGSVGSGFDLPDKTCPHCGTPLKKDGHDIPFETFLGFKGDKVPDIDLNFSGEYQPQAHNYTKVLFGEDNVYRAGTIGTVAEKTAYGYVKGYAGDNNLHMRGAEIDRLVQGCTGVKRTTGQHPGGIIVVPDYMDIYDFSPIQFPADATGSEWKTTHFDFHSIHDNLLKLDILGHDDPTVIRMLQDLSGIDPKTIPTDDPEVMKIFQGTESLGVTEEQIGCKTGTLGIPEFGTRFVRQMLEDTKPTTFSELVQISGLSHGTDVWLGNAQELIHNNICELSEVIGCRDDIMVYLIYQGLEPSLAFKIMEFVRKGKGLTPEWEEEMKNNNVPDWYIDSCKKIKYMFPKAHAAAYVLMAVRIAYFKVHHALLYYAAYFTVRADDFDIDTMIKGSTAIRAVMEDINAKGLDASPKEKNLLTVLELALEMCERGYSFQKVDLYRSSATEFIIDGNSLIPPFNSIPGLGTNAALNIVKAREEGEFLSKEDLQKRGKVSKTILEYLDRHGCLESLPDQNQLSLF

With `COCCCn1c(=O)cc(Nc2cccc(Br)c2)[nH]c1=O` [Compound 3-Br] as the compound, how does the “MIC B. subtilis” value (B. subtilis [1]) read?
The value was greater than 100 µg/mL.

How did the MIC (S. aureus) turn out when `CCc1cc(Nc2cc(=O)n(CCCCOC)c(=O)[nH]2)ccc1C` [MB-EMAU] was run?
The MIC was 6 µg/mL (≈ 18.1 µM).

What about the MIC (E. fecalis) of the same compound?
The MIC was 6 µg/mL (≈ 18.1 µM).

And the MIC (B. subtilis [2])?
Its MIC is less than 3.1 µg/mL.

What about the pKi (B. subtilis DNA pol III; [4]) of the same compound?
Its pKi is 6.37.

What does the source list for `CCc1cc(Nc2cc(=O)n(CCCCOC(=O)C(N)Cc3ccccc3)c(=O)[nH]2)ccc1C` (stereo not shown) [(CH2)4-OCOCH(CH2Ph)NH3^+Cl^−]?
MIC E. coli (E. coli): >20 μ/ml; MIC S. aureus (S. aureus): >20 μ/ml; MIC VRE [3]: >20 μ/ml; MIC E. fecalis (E. fecalis): >20 μ/ml; MIC MRSA (MRSA): >20 μ/ml; MIC B. subtilis (B. subtilis [2]): >20 μ/ml; MIC E. fecium (E. fecium): >20 μ/ml; MIC MRSA2 (MRSA2): >20 μ/ml; pKi (B. subtilis DNA pol III; [5]): 5.21

With `COCCCn1c(=O)cc(Nc2cccc(F)c2)[nH]c1=O` [Compound 3-F] as the compound, how does the “MIC B. subtilis” value (B. subtilis [1]) read?
Its value is greater than 100 µg/mL.

With `COCCCn1c(=O)cc(Nc2cccc(C)c2)[nH]c1=O` [Compound 3-Me] as the compound, how does the “MIC B. subtilis” value (B. subtilis [1]) read?
Its value is 100 µg/mL (≈ 346 µM).

Which “MIC E. coli” value (E. coli) does the source give for `CCc1cc(Nc2cc(=O)n(CCCCOC(=O)C(NC(=O)OC(C)(C)C)C(C)C)c(=O)[nH]2)ccc1C` (stereo not shown) [(CH2)4-OCOCH(iPr)NH-Boc] here?
The value was greater than 20 μ/ml.

And the “MIC S. aureus” value (S. aureus)?
Its value is greater than 20 μ/ml.

And the “MIC VRE” value [3]?
The value was greater than 20 μ/ml.

What about the “MIC E. fecalis” value (E. fecalis) of the same compound?
Its value is greater than 20 μ/ml.

And the “MIC MRSA” value (MRSA)?
The value was greater than 20 μ/ml.

What about the “MIC B. subtilis” value (B. subtilis [2]) of the same compound?
The value was 2.5 μ/ml.

What about the “MIC E. fecium” value (E. fecium) of the same compound?
The value was greater than 20 μ/ml.

And the “MIC MRSA2” value (MRSA2)?
The value was greater than 20 μ/ml.

What about the pKi (B. subtilis DNA pol III; [5]) of the same compound?
Its pKi is 5.31.

For `CCc1ccc(Nc2cc(=O)n(CCCOC)c(=O)[nH]2)cc1` [Compound 4-Et], which “MIC B. subtilis” value (B. subtilis [1]) is on record?
Its value is 50 µg/mL (≈ 165 µM).

`COCCCn1c(=O)cc(Nc2ccc(O)cc2)[nH]c1=O` [Compound 4-OH] was tested. Which “MIC B. subtilis” value (B. subtilis [1]) did it give?
The value was greater than 100 µg/mL.

With `COCCCn1c(=O)cc(Nc2cc(OC(F)(F)F)cc(OC(F)(F)F)c2)[nH]c1=O` [3,5-diOCF3] as the compound, how does the “MIC B. subtilis” value (B. subtilis [1]) read?
Its value is greater than 100 µg/mL.

With `COCCCn1c(=O)cc(Nc2ccc(I)cc2)[nH]c1=O` [Compound 4-I] as the compound, how does the “MIC B. subtilis” value (B. subtilis [1]) read?
Its value is 100 µg/mL (≈ 249 µM).

For `COCCCn1c(=O)cc(Nc2ccc(C(C)C)cc2)[nH]c1=O` [Compound 4-iPR], which “MIC B. subtilis” value (B. subtilis [1]) is on record?
Its value is greater than 100 µg/mL.

How did the “MIC B. subtilis” value (B. subtilis [1]) turn out when `COCCCn1c(=O)cc(Nc2cccc(C(C)O)c2)[nH]c1=O` (stereo not shown) [3-CH(OH)CH3] was run?
Its value is greater than 100 µg/mL.

With `COCCCCn1c(=O)cc(Nc2ccc(C)c(I)c2)[nH]c1=O` [ME-IMAU] as the compound, how does the MIC (S. aureus) read?
The MIC was 6 µg/mL (≈ 14 µM).

What about the MIC (E. fecalis) of the same compound?
The MIC was 3 µg/mL (≈ 6.99 µM).

What about the MIC (B. subtilis [2]) of the same compound?
The MIC was less than 3.1 µg/mL.

And the pKi (B. subtilis DNA pol III; [4])?
The pKi was 6.27.

For `COCCCn1c(=O)cc(Nc2ccc(C)cc2)[nH]c1=O` [Compound 4-Me], which “MIC B. subtilis” value (B. subtilis [1]) is on record?
Its value is 50 µg/mL (≈ 173 µM).

`COCCCn1c(=O)cc(Nc2ccc(OC)c(OC)c2)[nH]c1=O` [3,4-diOMe] was tested. Which “MIC B. subtilis” value (B. subtilis [1]) did it give?
The value was greater than 100 µg/mL.

For `COCCCn1c(=O)cc(Nc2ccc(C)c(I)c2)[nH]c1=O` [Compound 3-1-4-Me], which “MIC B. subtilis” value (B. subtilis [1]) is on record?
The value was 1.57 µg/mL (≈ 3.78 µM).

Which “MIC B. subtilis” value (B. subtilis [1]) does the source give for `COCCCn1c(=O)cc(Nc2ccc(C#N)cc2)[nH]c1=O` [Compound 4-CN] here?
Its value is greater than 100 µg/mL.

For `COCCCn1c(=O)cc(Nc2ccccc2)[nH]c1=O` [—], which “MIC B. subtilis” value (B. subtilis [1]) is on record?
Its value is greater than 100 µg/mL.

Which “MIC B. subtilis” value (B. subtilis [1]) does the source give for `COCCCn1c(=O)cc(Nc2cccc(Cl)c2)[nH]c1=O` [Compound 3-Cl] here?
Its value is greater than 100 µg/mL.

`COCCCn1c(=O)cc(Nc2cccc(OC)c2)[nH]c1=O` [Compound 3-OMe] was tested. Which “MIC B. subtilis” value (B. subtilis [1]) did it give?
Its value is greater than 100 µg/mL.

For `COCCCn1c(=O)cc(Nc2ccc(F)c(Cl)c2)[nH]c1=O` [Compound 3-Cl-4-F], which “MIC B. subtilis” value (B. subtilis [1]) is on record?
Its value is 50 µg/mL (≈ 153 µM).

`COCCCn1c(=O)cc(Nc2ccc(Br)c(C(F)(F)F)c2)[nH]c1=O` [Compound 3-CF3-4-Br] was tested. Which “MIC B. subtilis” value (B. subtilis [1]) did it give?
The value was greater than 100 µg/mL.

`COCCCn1c(=O)cc(Nc2ccc(Br)c(Br)c2)[nH]c1=O` [3,4-diBr] was tested. Which “MIC B. subtilis” value (B. subtilis [1]) did it give?
Its value is 3.13 µg/mL (≈ 7.23 µM).

Which “MIC B. subtilis” value (B. subtilis [1]) does the source give for `COCCCn1c(=O)cc(Nc2cccc(CO)c2)[nH]c1=O` [Compound 3-CH2OH] here?
The value was greater than 100 µg/mL.

— patent publication US6448256B1, “Antibiotic prodrugs” (University of Massachusetts, priority 1999, dated 2002)
